For assay [1], the system named is human keratinocytes. The experiment in a line: lifespan of human keratinocytes with YEL002. In kind it is cell-based. The following applies: application of the active ingredient YEL002.
For assay [2] the following is noted: disclosed in U.S. Pat. No. 9,045,474; cited from earlier work.

Consider one molecule from patent US20230390176A1, “Cosmetic Skin and Medical Cream” (Protecta-Skincare, Inc., priority 2021, published 2023).

SMILES strings stand for the structures.

As to `COc1ccc2cc(-c3nc4ccc(C)cn4c3NCc3ccco3)c(=O)[nH]c2c1` [YEL002], in assay [1], the “human keratinocytes live longer (anti-aging)” value was determined as 15%. Besides, the “mitigating tissue damage induced by an agent” value in assay [2] was “effective in mitigating tissue damage”.
